Measured values as given in patent publication US7012144B2, “Quinolone carboxylic acid derivatives” (Korea Research Institute of Chemical Technology, priority 2001, dated 2006).
In brackets after ≈: the same amount, converted by molar mass. Where two headings read alike, the source gives them in different places.

Experiments:
[1] = test system: Streptococcus pyogenes A 308; experiment: Antibacterial activity in vitro (MIC, two-fold dilution, Muller Hinton agar); format: cell-based; conditions: 37° C., 18 hours
Experimental: (§1) The MIC values were determined employing a two-fold dilution method and Muller Hinton agar medium. Each of the Hoechst 345 standard strains having the concentration of 10^7CFU (colony forming unit)/ml was inoculated onto the medium, and incubated at 37° C. for 18 hours.

[2] = test system: Pseudomonas aeruginosa 1771M; experiment: as above; format: cell-based
Experimental: as §1

Salmonella typhymurium = experiment: as above; format: cell-based; conditions: 10^7 CFU/ml, 37° C., 18 hours
Experimental: as §1

[3] = test system: Staphylococcus aureus 503; experiment: as above; format: cell-based; conditions: 10^7 CFU/ml, 37° C., 18 hours
Experimental: as §1

Escherchia coli 078 = experiment: as above; format: cell-based; conditions: 10^7 CFU/ml, 37° C., 18 hours
Experimental: as §1

[4] = test system: Pseudomonas aeruginosa 1771; experiment: as above; format: cell-based; conditions: 10^7 CFU/ml, 37° C., 18 hours
Experimental: as §1

Escherchia coli DC0 = experiment: as above; format: cell-based
Experimental: as §1

Klebsiella oxytoca 1522E = experiment: as above; format: cell-based; conditions: 10^7 CFU/ml, 37° C., 18 hours
Experimental: as §1

[5] = test system: Staphylococcus aureus 285; experiment: as above; format: cell-based
Experimental: as §1

Klebsiella oxytoca 1082E = experiment: as above; format: cell-based; conditions: 10^7 CFU/ml, 37° C., 18 hours
Experimental: as §1

[6] = test system: Staphylococcus aureus SG 511; experiment: as above; format: cell-based; conditions: 37° C., 18 hours
Experimental: as §1

Escherchia coli TEM = experiment: as above; format: cell-based; conditions: 10^7 CFU/ml, 37° C., 18 hours
Experimental: as §1

[7] = test system: Streptococcus pyogenes A 77; experiment: as above; format: cell-based
Experimental: as §1

[8] = test system: Streptococcus faecium MD 8b; experiment: as above; format: cell-based; conditions: 10^7 CFU/ml, 37° C., 18 hours
Experimental: as §1

Escherchia coli 1507E = experiment: as above; format: cell-based; conditions: 10^7 CFU/ml, 37° C., 18 hours
Experimental: as §1

Escherchia coli DC2 = experiment: as above; format: cell-based
Experimental: as §1

[9] = test system: Pseudomonas aeruginosa 1592E; experiment: as above; format: cell-based; conditions: 10^7 CFU/ml, 37° C., 18 hours
Experimental: as §1

[10] = test system: Pseudomonas aeruginosa 9027; experiment: as above; format: cell-based; conditions: 10^7 CFU/ml, 37° C., 18 hours
Experimental: as §1

[11] = test system: calf thymus topoisomerase II; experiment: Inhibition of the enzyme activity of topoisomerase II; format: biochemical; conditions: concentration to inhibit the enzyme activity of calf thymus topoisomerase II
Experimental: (§2) Selectivity indexes of the compounds of the present invention and control compounds were measured using gyrase purified from of E. coli and calf thymus topoisomerase II obtained from Topogen. Co.
(§3) The selectivity index (S.I.) was calculated by the equation 1. [formula] wherein, IC100, Topo II is the concentration of a compound to inhibit the enzyme activity of topoisomerase II and IC100, Gyrase is the concentration of a compound to inhibit the enzyme activity of gyrase of E. coli.

gyrase of E. coli = target: T1, gyrase of E. coli (Escherichia coli, UniProt P0AES4+P0AES6); experiment: Inhibition of the enzyme activity of gyrase; format: biochemical; conditions: concentration to inhibit the enzyme activity of gyrase of E. coli
T1 construct: gyrase purified from of E. coli; host or cells: E. coli
Experimental: as §2, §3

[12] = test system: Enterobacter cloacae 1321E; experiment: Antibacterial activity in vitro (MIC, two-fold dilution, Muller Hinton agar); format: cell-based; conditions: 10^7 CFU/ml, 37° C., 18 hours
Experimental: as §1

Enterobacter cloacae P99 = experiment: as above; format: cell-based; conditions: 10^7 CFU/ml, 37° C., 18 hours
Experimental: as §1

[13] = A308, 10^7 CFU/ml, read-out: MIC
[14] = Pseudomonas aeruginosa, 1771M, 18 h
[15] = SG511, 10^7 CFU/ml, read-out: MIC
[16] = Enterococcus faecium, MD8B, read-out: MIC
[17] = Pseudomonas aeruginosa 1771M, 10^7 CFU/ml, 37° C., 18 hours
[18] = Escherchia coli DC0, 10^7 CFU/ml, 37° C., 18 hours
[19] = Staphylococcus aureus 285, 10^7 CFU/ml, 37° C., 18 hours
[20] = Streptococcus pyogenes A 77, 10^7 CFU/ml, 37° C., 18 hours
[21] = Escherchia coli DC2, 10^7 CFU/ml, 37° C., 18 hours

T1 sequence (P0AES4 whole entry, one chain of several): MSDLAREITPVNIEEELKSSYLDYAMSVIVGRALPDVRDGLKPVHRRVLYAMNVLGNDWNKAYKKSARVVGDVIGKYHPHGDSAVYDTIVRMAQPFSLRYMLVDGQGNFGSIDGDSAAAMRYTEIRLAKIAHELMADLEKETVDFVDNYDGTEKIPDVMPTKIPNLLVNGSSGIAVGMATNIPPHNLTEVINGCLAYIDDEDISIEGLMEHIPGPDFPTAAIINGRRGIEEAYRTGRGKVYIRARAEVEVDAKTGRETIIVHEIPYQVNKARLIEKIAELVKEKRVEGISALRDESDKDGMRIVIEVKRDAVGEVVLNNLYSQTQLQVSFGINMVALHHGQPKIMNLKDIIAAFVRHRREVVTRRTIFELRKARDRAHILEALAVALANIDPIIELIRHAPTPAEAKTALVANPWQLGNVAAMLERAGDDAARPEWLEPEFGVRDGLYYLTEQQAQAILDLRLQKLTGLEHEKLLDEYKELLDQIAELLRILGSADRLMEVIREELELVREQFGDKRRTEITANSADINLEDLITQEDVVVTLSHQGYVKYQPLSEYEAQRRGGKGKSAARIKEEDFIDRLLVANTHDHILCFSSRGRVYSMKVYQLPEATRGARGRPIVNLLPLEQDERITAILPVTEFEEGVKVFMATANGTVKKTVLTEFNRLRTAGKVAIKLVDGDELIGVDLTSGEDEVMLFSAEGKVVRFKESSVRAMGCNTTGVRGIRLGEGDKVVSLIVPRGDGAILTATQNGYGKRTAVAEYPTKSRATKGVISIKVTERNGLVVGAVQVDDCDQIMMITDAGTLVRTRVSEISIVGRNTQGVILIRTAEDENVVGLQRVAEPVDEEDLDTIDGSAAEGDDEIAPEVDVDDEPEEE

| Compound | MIC [1, 13] [µg/mL] | MIC [2, 14] [µg/mL] | MIC (Salmonella typhymurium; read-out: MIC) [µg/mL] | MIC ([3]; read-out: MIC) [µg/mL] | MIC (Escherchia coli 078; read-out: MIC) [µg/mL] | MIC ([4]; read-out: MIC) [µg/mL] | MIC (Escherchia coli DC0; 18 h) [µg/mL] | MIC (Klebsiella oxytoca 1522E; read-out: MIC) [µg/mL] | MIC (Klebsiella oxytoca 1082E; read-out: MIC) [µg/mL] | MIC [6, 15] [µg/mL] | MIC (Escherchia coli TEM; read-out: MIC) [µg/mL] | MIC [8, 16] [µg/mL] | MIC (Escherchia coli 1507E; read-out: MIC) [µg/mL] | MIC ([9]; read-out: MIC) [µg/mL] | MIC ([10]; read-out: MIC) [µg/mL] | IC100, Topo II [11] | IC100, Gyrase (gyrase of E. coli) [µg/mL] | MIC [12] [µg/mL] | MIC ([1]; 10^7 CFU/ml) [µg/mL] | MIC [2, 17] [µg/mL] | other results |
| --- | --- | --- | --- | --- | --- | --- | --- | --- | --- | --- | --- | --- | --- | --- | --- | --- | --- | --- | --- | --- | --- |
| O=C(O)c1cn(C2CC2)c2cc(N3CCNCC3)c(F)cc2c1=O [Ciprofloxacin, 1-cyclopropyl-6-fluoro-7-(piperazin-1-yl)-4-oxoquinoline-3-carboxylic acid, reference compound] | 3.12 (≈ 9.43 µM) | 0.049 (≈ 0.148 µM) | 0.007 (≈ 0.0211 µM) | 0.391 (≈ 1.18 µM) | 0.004 (≈ 0.0121 µM) | 0.195 (≈ 0.589 µM) | 0.195 (≈ 0.589 µM) | 0.013 (≈ 0.0392 µM) | < 0.002 | 0.195 (≈ 0.589 µM) | 0.007 (≈ 0.0211 µM) | 0.391 (≈ 1.18 µM) | 0.007 (≈ 0.0211 µM) | 0.195 (≈ 0.589 µM) | 0.195 (≈ 0.589 µM) | 500 µg/mL | 0.5 | – | – | – | MIC ([5]; Staphylococcus aureus, 285, 18 h): 0.781 µg/mL (≈ 2.36 µM); MIC ([7]; Streptococcus pyogenes, A77, 18 h): 0.781 µg/mL (≈ 2.36 µM); MIC (Escherchia coli DC2; 18 h): 0.049 µg/mL (≈ 0.148 µM) |
| COc1c(N2CCC(CN)(c3ccccn3)C2)c(F)cc2c(=O)c(C(=O)O)cn(C3CC3)c12 (stereo not shown) [Compound 3, 1-cyclopropyl-6-fluoro-8-methoxy-7-[{3-aminomethyl-3-(pyridin-2-yl)pyrrolidin}-1-yl]-4-oxo-1,4-dihydroquinolin-3-carboxylic acid] | – | – | – | – | – | – | – | – | – | – | – | – | – | – | – | 1,000 μg/ml | 0.2 | <0.002 | 0.013 (≈ 0.0287 µM) | 0.098 (≈ 0.217 µM) | MIC (Salmonella typhymurium): 0.007 µg/mL (≈ 0.0155 µM); MIC [3]: 0.007 µg/mL (≈ 0.0155 µM); MIC (Escherchia coli 078): <0.002 µg/mL; MIC [4]: 0.098 µg/mL (≈ 0.217 µM); MIC (Escherchia coli DC0; [18]): 0.049 µg/mL (≈ 0.108 µM); MIC (Klebsiella oxytoca 1522E): 0.013 µg/mL (≈ 0.0287 µM); MIC [5, 19]: 0.013 µg/mL (≈ 0.0287 µM); MIC (Klebsiella oxytoca 1082E): <0.002 µg/mL; MIC ([6]; 10^7 CFU/ml): 0.007 µg/mL (≈ 0.0155 µM); MIC (Escherchia coli TEM): 0.007 µg/mL (≈ 0.0155 µM); MIC [7, 20]: 0.007 µg/mL (≈ 0.0155 µM); MIC (Enterobacter cloacae P99): 0.007 µg/mL (≈ 0.0155 µM); MIC [8]: 0.007 µg/mL (≈ 0.0155 µM); MIC (Escherchia coli 1507E): 0.007 µg/mL (≈ 0.0155 µM); MIC (Escherchia coli DC2; [21]): 0.013 µg/mL (≈ 0.0287 µM); MIC [9]: 0.195 µg/mL (≈ 0.431 µM); MIC [10]: 0.195 µg/mL (≈ 0.431 µM) |
| COc1c(N2CCC(N)(c3ccncc3)C2)c(F)cc2c(=O)c(C(=O)O)cn(C3CC3)c12 (stereo not shown) [Compound 11, 1-cyclopropyl-6-fluoro-8-methoxy-7-[{3-amino-3-(pyridin-4-yl)pyrrolidin}-1-yl]-4-oxo-1,4-dihydroquinolin-3-carboxylic acid] | – | – | – | – | – | – | – | – | – | – | – | – | – | – | – | 1,000 μg/ml | 0.4 | 0.002 (≈ 0.00456 µM) | 0.025 (≈ 0.057 µM) | 0.098 (≈ 0.224 µM) | MIC (Salmonella typhymurium): 0.007 µg/mL (≈ 0.016 µM); MIC [3]: 0.007 µg/mL (≈ 0.016 µM); MIC (Escherchia coli 078): <0.002 µg/mL; MIC [4]: 0.195 µg/mL (≈ 0.445 µM); MIC (Escherchia coli DC0; [18]): 0.049 µg/mL (≈ 0.112 µM); MIC (Klebsiella oxytoca 1522E): 0.013 µg/mL (≈ 0.0296 µM); MIC [5, 19]: 0.013 µg/mL (≈ 0.0296 µM); MIC (Klebsiella oxytoca 1082E): 0.002 µg/mL (≈ 0.00456 µM); MIC ([6]; 10^7 CFU/ml): 0.013 µg/mL (≈ 0.0296 µM); MIC (Escherchia coli TEM): 0.007 µg/mL (≈ 0.016 µM); MIC [7, 20]: 0.013 µg/mL (≈ 0.0296 µM); MIC (Enterobacter cloacae P99): 0.004 µg/mL (≈ 0.00912 µM); MIC [8]: 0.025 µg/mL (≈ 0.057 µM); MIC (Escherchia coli 1507E): 0.013 µg/mL (≈ 0.0296 µM); MIC (Escherchia coli DC2; [21]): 0.013 µg/mL (≈ 0.0296 µM); MIC [9]: 0.195 µg/mL (≈ 0.445 µM); MIC [10]: 0.195 µg/mL (≈ 0.445 µM) |
| CC1CN(c2c(F)c(N)c3c(=O)c(C(=O)O)cn(C4CC4)c3c2F)CC(C)N1 (stereo not shown) [Sparfloxacin, 1-cyclopropyl-5-amino-6,8-difluoro-7-(3,5-dimethylpiperazin-1-yl)-4-oxoquinoline-3-carboxylic acid, reference compound] | 0.391 (≈ 0.996 µM) | 0.195 (≈ 0.497 µM) | 0.007 (≈ 0.0178 µM) | 0.049 (≈ 0.125 µM) | 0.004 (≈ 0.0102 µM) | 0.781 (≈ 1.99 µM) | 0.195 (≈ 0.497 µM) | 0.025 (≈ 0.0637 µM) | < 0.002 | 0.098 (≈ 0.25 µM) | 0.013 (≈ 0.0331 µM) | 0.391 (≈ 0.996 µM) | 0.025 (≈ 0.0637 µM) | 0.781 (≈ 1.99 µM) | 0.781 (≈ 1.99 µM) | 500 µg/mL | 1.0 | – | – | – | MIC ([12]; read-out: MIC): 0.004 µg/mL (≈ 0.0102 µM); MIC ([5]; Staphylococcus aureus 285, 10^7 CFU/ml, 37° C., 18 hours, read-out: MIC): 0.049 µg/mL (≈ 0.125 µM); MIC ([7]; A77, Streptococcus pyogenes A 77, 10^7 CFU/ml, 37° C., 18 hours, read-out: MIC): 0.195 µg/mL (≈ 0.497 µM); MIC (Enterobacter cloacae P99; read-out: MIC): 0.007 µg/mL (≈ 0.0178 µM) |
